The record followed here is patent US20080261977A1, “Pyrimidine Derivatives as Cannabinoid Receptor Modulators” (priority 2004, published 2008).

This assay has as its target T1, human cannabinoid CB2 receptor (Homo sapiens, UniProt P34972).
T1 construct: expressed in transfected cells; host or cells: Saccharomyces cerevisiae strain MMY23 (cassette integrated at the ura3 locus; chimeric Gpa1/Gαi3)
The assay is described as follows: Cannabinoid CB2 receptor agonist activity, yeast (Saccharomyces cerevisiae) cells expressing the receptor, FDGlu fluorescence. The format is cell-based. The note with it: for Emax: read-out: efficacy (Emax relative to HU210) at the cloned human cannabinoid CB2 receptor. On the procedure: The cannabinoid CB2 receptor agonist activity of the compounds of formula (I) was determined in accordance with the following experimental method.
Yeast (Saccharomyces cerevisiae) cells expressing the human cannabinoid CB2 receptor were generated by integration of an expression cassette into the ura3 chromosomal locus of yeast strain MMY23. This cassette consisted of DNA sequence encoding the human CB2 receptor flanked by the yeast GPD promoter to the 5′ end of CB2 and a yeast transcriptional terminator sequence to the 3′ end of CB2. MMY23 expresses a yeast/mammalian chimeric G-protein alpha subunit in which the C-terminal 5 amino acids of Gpa1 are replaced with the C-terminal 5 amino acids of human Gαi3 (as described in Brown et al. (2000), Yeast 16:11-22). Cells were grown at 30° C. in liquid Synthetic Complete (SC) yeast media (Guthrie and Fink (1991), Methods in Enzymology, Vol. 194) lacking uracil, tryptophan, adenine and leucine to late logarithmic phase (approximately 6 OD600/ml).
Agonists were prepared as 10 mM stocks in DMSO. EC50 values (the concentration required to produce 50% maximal response) were estimated using dilutions of between 3- and 5-fold (BiomekFX, Beckman) into DMSO. Agonist solutions in DMSO (1% final assay volume) were transferred into black, clear bottom, microtitre plates from NUNC (96- or 384-well). Cells were suspended at a density of 0.2 OD600/ml in SC media lacking histidine, uracil, tryptophan, adenine and leucine and supplemented with 10 mM 3-aminotriazole, 0.1M sodium phosphate pH 7.0, and […] fluorescein di-β-D-glucopyranoside (FDGlu). This mixture (50 ul per well for 384-well plates, 200 ul per well for 96-well plates) was added to agonist in the assay plates (Multidrop 384, Labsystems). After incubation at 30° C. for 24 hours, fluorescence resulting from degradation of FDGlu to fluorescein due to exoglucanase, an endogenous yeast enzyme produced during agonist-stimulated cell growth, was determined using a Spectrofluor microtitre plate reader (Tecan; excitation wavelength: 485 nm; emission wavelength: 535 nm). Fluorescence was plotted against compound concentration and iteratively curve fitted using a four parameter fit to generate a concentration effect value. Efficacy (Emax) was calculated from the equation
Emax=Max[compound X]−Min[compound X]/Max[HU210]−Min[HU210]×100%
where Max[compound X] and Min[compound X] are the fitted maximum and minimum respectively from the concentration effect curve for compound X, and Max[HU210] and Min[HU210] are the fitted maximum and minimum respectively from the concentration effect curve for (6aR,10aR)-3-1,1′-Dimethylheptyl)-6a,7,10,10a-tetrahydro-1-hydroxy-6,6-dimethyl-6H-dibenzo[b,d]pyran-9-methanol (HU210; available from Tocris). Equieffective molar ratio (EMR) values were calculated from the equation
Where EC50[compound X] is the EC50 of compound X and EC50[HU210] is the EC50 of HU210.

Where [1] appears, read: yeast agonist assay, read-out: EC50 at the cloned human cannabinoid CB2 receptor.

pEC50: −log10 of the molar value. Where a name gives a salt, the structure may show the parent alone. Read-outs that look alike come from different tables or passages of the source. Some results are limits rather than exact numbers.

T1 sequence (P34972 whole entry): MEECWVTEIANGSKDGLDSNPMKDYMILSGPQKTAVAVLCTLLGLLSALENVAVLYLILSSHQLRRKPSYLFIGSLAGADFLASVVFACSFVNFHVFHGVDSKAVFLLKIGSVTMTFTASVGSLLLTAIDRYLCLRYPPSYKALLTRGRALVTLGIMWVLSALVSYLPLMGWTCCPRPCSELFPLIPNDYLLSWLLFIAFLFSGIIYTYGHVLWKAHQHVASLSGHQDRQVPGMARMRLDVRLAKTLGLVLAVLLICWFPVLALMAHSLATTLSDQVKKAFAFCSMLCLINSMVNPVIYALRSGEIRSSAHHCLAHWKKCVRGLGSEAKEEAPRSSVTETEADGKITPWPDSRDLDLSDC

Usually pEC50 stands for −log10 of the EC50, conventionally taken in molar units. What is called Emax is the size of the effect at its maximum, as opposed to the concentration needed. Consider `CC(NCC1CCCC1)c1cnc(Nc2cccc(Cl)c2)nc1C(F)(F)F` (stereo not drawn) [Example 90, (3-Chlorophenyl)-{5-[1-(cyclopentylmethyl-amino)-ethyl]-4-trifluoromethyl-pyrimidin-2-yl}-amine, formate], for which the pEC50 under setting [1] is > 6.52. Moreover, the Emax (yeast agonist assay) is > 50%.

For `FC(F)(F)c1nc(Nc2cccc(Cl)c2)ncc1CNCc1cccnc1` [Example 31, (3-Chlorophenyl)-(5-{[(pyridin-3-ylmethyl)-amino]-methyl}-4-trifluoromethyl-pyrimidin-2-yl}-amine,formate], under setting [1], the pEC50 was > 6.52. Besides, the maximal effect (Emax) (yeast agonist assay) was > 50%.

With `CN(Cc1cnc(Nc2cccc(Cl)c2)nc1C(F)(F)F)CC1CCC1` [Example 51], the Emax was > 50%. The pEC50 under setting [1] is 6.00 to 6.52.

Take `FC(F)(F)c1nc(Nc2cccc(Cl)c2)ncc1CNCC1CCOCC1` [Example 15, (3-Chlorophenyl)-(5-{[(tetrahydro-pyran-4-ylmethyl)-amino]-methyl}-4-trifluoromethyl-pyrimidin-2-yl)-amine,formate]: the pEC50 under setting [1] is > 6.52. Further, where the note is “yeast agonist assay”, the Emax is > 50%.

On to `FC(F)(F)c1nc(Nc2cccc(Cl)c2)ncc1CNC1CCCCC1` [Example 43, (3-Chlorophenyl)-(5-cyclohexylaminomethyl-4-trifluoromethyl-pyrimidin-2-yl)-amine], for which the pEC50 is 6.00 to 6.52 and the Emax is > 50%.

Take `Clc1cccc(Nc2ncc(CNC3CCC3)c(C3CC3)n2)c1` [Example 1, (3-Chloro-phenyl)-(5-cyclobutylaminomethyl-4-cyclopropyl-pyrimidin-2-yl)-amine]: the pEC50 under setting [1] was > 6.52. For the same compound, the Emax (yeast agonist assay) is > 50%.

For `FC(F)(F)c1nc(Nc2cccc(Cl)c2)ncc1CN1CCOCC1` [Example 14, (3-Chlorophenyl)-(5-morpholin-4-ylmethyl-4-trifluoromethyl-pyrimidin-2-yl)-amine], the pEC50 was > 6.52 and the Emax was > 50%.

On to `CC(C)CNC(C)c1cnc(Nc2cccc(Cl)c2)nc1C(F)(F)F` (stereo not drawn) [Example 92, (3-Chlorophenyl)-[5-(1-isobutylamino-ethyl)-4-trifluoromethyl-pyrimidin-2-yl]-amine, formate], for which, under setting [1], the pEC50 is > 6.52. Further, where the note is “yeast agonist assay”, the Emax was > 50%.

With `COCCNCc1cnc(Nc2cccc(Cl)c2)nc1C(F)(F)F` [Example 17, (3-Chlorophenyl)-{5-[(2-methoxy-ethylamino)-methyl]-4-trifluoromethyl-pyrimidin-2-yl}-amine, formate], the pEC50 under setting [1] was > 6.52. Moreover, the Emax (yeast agonist assay) was > 50%.

As to `CC(C)(C)CNCc1cnc(Nc2ccc(Cl)cc2Cl)nc1C(F)(F)F` [Example 32, (2,4-Dichlorophenyl)-{5-[(2,2-dimethylpropylamino)-methyl]-4-trifluoromethyl-pyrimidin-2-yl}-amine], the pEC50 is > 6.52 and the Emax is > 50%.

On to `CC(C)(C)c1nc(Nc2cccc(Cl)c2)ncc1CNCc1ccc(F)cc1` [Example 100, (4-tert-Butyl-5-[(4-fluoro-benzylamino)-methyl]-pyrimidin-2-yl}-(3-chloro-phenyl)-amine hydrochloride], for which the pEC50 under setting [1] was > 6.52. The Emax (yeast agonist assay) was > 50%.

As for `COCCNCc1cnc(Nc2ccc(Cl)cc2Cl)nc1C(F)(F)F` [Example 33, (2,4-Dichlorophenyl)-{5-[(2-methoxy-ethylamino)-methyl]-4-trifluoromethyl-pyrimidin-2-yl}-amine], the pEC50 under setting [1] is > 6.52. Also, for the setting “yeast agonist assay”, the Emax is > 50%.

Regarding `FC(F)(F)c1nc(Nc2ccc(Cl)cc2Cl)ncc1CNC1CC1` [Example 30, (2,4-Dichlorophenyl)-(5-cyclopropylaminomethyl-4-trifluoromethyl-pyrimidin-2-yl)-amine], the pEC50 was > 6.52 and the Emax is > 50%.

`CC(C)CNCc1cnc(Nc2cccc(Cl)c2)nc1C(C)(C)C` [Example 102, (4-tert-Butyl-5-(isobutylamino-methyl)-pyrimidin-2-yl]-(3-chloro-phenyl)-aminehydrochloride]: under setting [1], the pEC50 was > 6.52. Moreover, under “yeast agonist assay”, the Emax is > 50%.

With `CC(C)(C)c1nc(Nc2cccc(Cl)c2)ncc1CNCC1CCOCC1` [Example 99, (4-tert-Butyl-5-{[(tetrahydro-pyran-4-ylmethyl)-amino]-methyl}-pyrimidin-2-yl)-(3-chloro-phenyl)-aminehydrochloride], under setting [1], the pEC50 was > 6.52. For the setting “yeast agonist assay”, the Emax is > 50%.

For `CN(Cc1cnc(Nc2cccc(Cl)c2)nc1C(F)(F)F)CC1CCOCC1` [Example 42, (3-Chlorophenyl)-(5-{[methyl-(tetrahydro-pyran-4-ylmethyl)-amino]-methyl}-4-trifluoromethyl-pyrimidin-2-yl)-amine], the Emax is > 50%. Moreover, the negative logarithm of the EC50 (pEC50) under setting [1] was 6.00 to 6.52.

Regarding `FC(F)(F)c1nc(Nc2ccc(Cl)cc2Cl)ncc1CNCC1CCC1` [Example 29, (2,4-Dichlorophenyl)-{5-[(cyclobutylmethylamino)-methyl]-4-trifluoromethyl-pyrimidin-2-yl}-amine,formate], the pEC50 under setting [1] is > 6.52. The Emax (yeast agonist assay) was > 50%.

Regarding `CCCCN(C)Cc1cnc(Nc2cccc(Cl)c2)nc1C(F)(F)F` [Example 47, {5-[(Butyl-methyl-amino)-methyl]-4-trifluoromethyl-pyrimidin-2-yl}-(3-chlorophenyl)-amine], the Emax is > 50%. Also, under setting [1], the pEC50 was 6.00 to 6.52.

Turning to `FC(F)(F)c1nc(Nc2cccc(Cl)c2)ncc1CNCC1CC1` [Example 25, (3-Chlorophenyl)-{5-[(cyclopropylmethylamino)-methyl]-4-trifluoromethyl-pyrimidin-2-yl}-amine,formate], the pEC50 under setting [1] was > 6.52. Moreover, the Emax (yeast agonist assay) is > 50%.

For the compound `FC(F)(F)c1nc(Nc2cccc(Cl)c2)ncc1CNCC1CCCCC1` [Example 12, (3-Chlorophenyl)-{[5-(cyclohexylmethylamino)-methyl]-4-trifluoromethyl-pyrimidin-2yl}-amine], the Emax is > 50%. Under setting [1], the pEC50 is 6.00 to 6.52.

As for `Fc1cc(CNCc2cnc(Nc3cccc(Cl)c3)nc2C(F)(F)F)ccn1` [Example 96, (3-Chlorophenyl)-(5-{[(2-fluoropyridin-4-ylmethyl)amino]-methyl}-4-trifluoromethyl-pyrimidin-2yl}-amine, formate], the maximal effect (Emax) was > 50%. Besides, the pEC50 under setting [1] is 6.00 to 6.52.

On to `FC(F)(F)c1nc(Nc2cccc(Cl)c2)ncc1CNCCCc1ccccc1` [Example 46, (3-Chlorophenyl)-[5-(phenpropylamino-methyl)-4-trifluoromethyl-pyrimidin-2-yl]-amine, formate], for which the Emax is > 50%. The negative logarithm of the EC50 (pEC50) under setting [1] is 6.00 to 6.52.

For `CC(C)(C)c1nc(Nc2cccc(Cl)c2)ncc1CN1CCOCC1` [Example 97, (4-tert-Butyl-5-morpholin-4-ylmethyl-pyrimidin-2-yl)-(3-chloro-phenyl)-amine hydrochloride], the pEC50 under setting [1] is > 6.52. Besides, the Emax (yeast agonist assay) was > 50%.

As for `FC(F)(F)c1nc(Nc2ccc(Cl)cc2Cl)ncc1CN1CCCC1` [Example 53, (2,4-Dichlorophenyl)-(5-pyrrolidin-1-ylmethyl-4-trifluoromethyl-pyrimidin-2-yl)-amine], the Emax was > 50%. The pEC50 under setting [1] is 6.00 to 6.52.

As for `CC(c1cnc(Nc2cccc(Cl)c2)nc1C(F)(F)F)N1CCOCC1` (stereo not drawn) [Example 93, (3-Chlorophenyl)-[5-(1-morpholin-4-yl-ethyl)-4-trifluoromethyl-pyrimidin-2-yl]-amine], the negative logarithm of the EC50 (pEC50) was > 6.52 and the Emax was > 50%.

Regarding `COCCNCc1cnc(Nc2cccc(Cl)c2)nc1C(C)C` [Example 9, (3-Chloro-phenyl)-{4-isopropyl-5-[(2-methoxy-ethylamino)-methyl]-pyrimidin-2-yl}-amineformate], the negative-log EC50 (pEC50) under setting [1] is > 6.52. In addition, the Emax (yeast agonist assay) is > 50%.

`FC(F)(F)c1nc(Nc2cccc(Cl)c2)ncc1CNC[C@H]1CCCO1` [Example 49, (3-Chlorophenyl)-(5-{[[(2R)-tetrahydro-furan-2-ylmethyl]-amino]-methyl}-4-trifluoromethyl-pyrimidin-2-yl)-amine,formate]: the Emax is > 50%. Further, the pEC50 under setting [1] was 6.00 to 6.52.
